Data reported in patent US6514998B1 (priority 1994, dated 2003).

Experiments:
Pyricularia oryzae = type: in vivo; settings: application rate 250 ppm; rice seedlings (Tai Nong 67) sprayed 24 h before infection; 6 days; untreated plants 70% attack
Fusarium culmorum = assay: Activity against Fusarium culmorum on wheat seedlings; type: in vivo; settings: application rate 500 ppm; wheat seedlings (Kanzler) sprayed one day before infection; 6 days; untreated plants 60% attack
Experimental: On the following day, the plants were infected with a spore suspension of Fusarium culmorum. The plants treated in this way were incubated for 6 days at 22-24° C. and a relative atmospheric humidity of >90%. Assessment was carried out visually.

Botrytis cinerea = settings: application rate 500 ppm; paprika seedlings (Neusiedler Ideal Elite) sprayed before infection; 5 days; untreated plants 80% attack

## COC(=O)N(OC)c1ccccc1COc1ncn(-c2ccccc2)n1 [Compound 2]
Pyricularia oryzae
  attack (visual assessment): 3%
Fusarium culmorum
  attack (visual assessment): 5%
Botrytis cinerea
  attack (visual assessment): 5%
